The values below come from EP0556947A1, “Use of M1-selective antimuscarinic pyridobenzodiazepinones for the treatment and prevention of axial myopia” (MERCK & CO. INC., priority 1992, dated 1993).

The Ki is a measure of affinity in units of concentration, obtained from inhibition or displacement.

For one series, the target named is T1, M₁ receptors (Rattus norvegicus, UniProt P08482).
T1 construct: M₁ receptors in rat cerebral cortex were labeled with ³H-pirenzepine; from tissue; host or cells: rat cerebral cortex
T1 sequence (P08482 1-460): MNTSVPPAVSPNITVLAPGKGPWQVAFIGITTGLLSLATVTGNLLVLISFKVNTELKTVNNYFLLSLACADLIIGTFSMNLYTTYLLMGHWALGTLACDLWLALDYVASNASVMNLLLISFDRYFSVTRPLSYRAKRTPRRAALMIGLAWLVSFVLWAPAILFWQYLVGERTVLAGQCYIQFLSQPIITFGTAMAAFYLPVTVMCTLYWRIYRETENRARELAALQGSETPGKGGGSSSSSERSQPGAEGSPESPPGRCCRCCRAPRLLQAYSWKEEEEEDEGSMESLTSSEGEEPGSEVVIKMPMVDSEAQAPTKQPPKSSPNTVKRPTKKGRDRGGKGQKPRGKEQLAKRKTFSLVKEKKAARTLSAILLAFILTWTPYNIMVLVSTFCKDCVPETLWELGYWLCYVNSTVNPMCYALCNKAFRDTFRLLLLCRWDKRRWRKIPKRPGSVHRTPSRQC
Briefly: ³H-pirenzepine radioligand binding assay, rat cerebral cortex. Conditions: for selectivity for M₁ than for M₃ receptors: M₁ (rat cerebral cortex) versus M₃ (rabbit iris + ciliary body) binding; for Ki: read-out: M1 Ki.

The test system of the next series is Form-deprivation myopia. As to the kind of experiment: form-deprivation myopia model in chicks (eyelid suture). Format: in vivo, White Leghorn chicks. The note with it: expected from M₁ potency relative to pirenzepine; no data reported. As for the experimental part:
Form-deprivation myopia is induced in day-old White Leghorn chicks under aseptic conditions and other anesthesia by eyelid suture to one eye. The chicks are maintained on a 12-hour light:dark cycle. […] Drug is injected daily subconjunctivally during the light cycle. At two weeks of age the animals are sacrificed and axial and equatorial dimensions of unfixed eyes are measured with vernier calipers independently by two observers.

Series [1] concerns female Dunkin Hartley albino guinea pigs. Briefly: guinea pig maximization test (sensitization). Conditions: challenge phase, readings on days 24 and 25. Format: in vivo. As to the method:
The guinea pig maximization test is required by the U.S. Food and Drug Administration of all drugs intended for ophthalmic administration. […] In Phase I, which is the induction phase, on day 1 two intradermal injections at the highest generally tolerated concentration of the test material were administered in the shaved intercapsular area (O.1ml of the test agent in a 50:50 mixture of Freund's complete adjuvant and distilled water). On day 7, approximately 400mg of a mixture of 10% sodium laurel sulfate in petrolatum was applied to the shaved intercapsular area. On day 8, 400mg of a mixture of the test compound in petrolatum was applied, on a 2 x 4 cm piece of Whatman paper to the shaved intercapsular area, along with Blenderm tape.
In Phase II, which is the challenge phase, on day 22, 200mg of petrolatum was applied to the shaved right flank, while 200mg of test compound at the highest non-irritant concentration (micronized in petrolatum) was applied to the shaved left flank, with each application being occluded for 24 hours.

In the next series the target is T2, M₃ receptors (Oryctolagus cuniculus, UniProt G1U308).
T2 construct: M₃ receptors in rabbit iris + ciliary body; from tissue; host or cells: rabbit iris + ciliary body (minus ciliary processes)
T2 sequence (G1U308 1-599): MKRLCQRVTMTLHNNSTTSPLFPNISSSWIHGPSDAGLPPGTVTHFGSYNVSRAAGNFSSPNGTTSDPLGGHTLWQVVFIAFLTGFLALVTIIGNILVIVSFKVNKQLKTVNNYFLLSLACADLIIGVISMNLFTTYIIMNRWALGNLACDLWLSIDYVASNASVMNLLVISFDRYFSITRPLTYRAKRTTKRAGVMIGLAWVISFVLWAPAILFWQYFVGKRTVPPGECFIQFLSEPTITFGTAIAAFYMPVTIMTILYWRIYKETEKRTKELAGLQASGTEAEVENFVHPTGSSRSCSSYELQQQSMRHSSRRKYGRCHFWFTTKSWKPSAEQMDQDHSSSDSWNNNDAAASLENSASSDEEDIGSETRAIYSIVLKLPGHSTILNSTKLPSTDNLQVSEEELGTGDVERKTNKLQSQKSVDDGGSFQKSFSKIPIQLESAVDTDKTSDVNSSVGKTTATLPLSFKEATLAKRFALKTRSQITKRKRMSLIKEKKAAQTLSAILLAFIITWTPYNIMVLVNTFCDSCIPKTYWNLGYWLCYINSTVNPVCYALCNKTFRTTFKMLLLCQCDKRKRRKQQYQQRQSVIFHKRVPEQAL
As to the kind of experiment: ³H-QNB radioligand binding assay, rabbit iris + ciliary body (minus ciliary processes).

The target of a further series is T3, M₂ receptors (Rattus norvegicus, UniProt P10980).
T3 construct: ³H-AFDX-384 labeled M₂ receptors in rat heart; from tissue; host or cells: rat heart
T3 sequence (P10980 1-466): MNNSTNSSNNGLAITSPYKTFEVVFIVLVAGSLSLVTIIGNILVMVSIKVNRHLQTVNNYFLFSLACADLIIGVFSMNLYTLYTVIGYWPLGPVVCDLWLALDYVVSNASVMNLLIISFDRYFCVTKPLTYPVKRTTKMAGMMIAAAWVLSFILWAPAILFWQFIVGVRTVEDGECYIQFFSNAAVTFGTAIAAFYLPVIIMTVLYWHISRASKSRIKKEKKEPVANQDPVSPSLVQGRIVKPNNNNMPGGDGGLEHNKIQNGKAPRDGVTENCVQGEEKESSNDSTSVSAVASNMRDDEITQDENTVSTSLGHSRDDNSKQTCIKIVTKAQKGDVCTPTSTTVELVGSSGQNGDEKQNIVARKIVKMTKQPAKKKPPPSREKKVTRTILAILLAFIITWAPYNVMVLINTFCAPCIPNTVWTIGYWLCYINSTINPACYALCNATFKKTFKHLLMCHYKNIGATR
Briefly: ³H-AFDX-384 radioligand binding assay, rat heart. The note with it: ³H AFDX-384 binding; for Ki: mean of 3-7 determinations ± SEM, read-out: M2 Ki.

In series [2] the test system is axial enlargement of the eye. The note with it: ocular administration under image deprivation; cited from earlier work.
The next series deals with myopia. The note with it: 1.0% atropine applied topically at bedtime, treated eye, one year per eye; cited from earlier work.
The mark [3] stands for this setting: ³H Pirenzepine binding, rat cerebral cortex.
Where [4] appears, read: ³H-QNB binding, rabbit iris + ciliary body (minus ciliary processes).
[5] abbreviates: ³H-QNB binding, rabbit iris + ciliary body (minus ciliary processes), mean of 3-7 determinations ± SEM, read-out: M3 Ki.

Like-named read-outs stand apart in the source and are kept apart here.

As to `CN1CCC(C(=O)N2c3ccccc3C(=O)Nc3cccnc32)CC1` [Nuvenzepine, 11-(1-Methylpiperidin-4-carbonyl)-5,11-dihydro-6H -pyrido[2,3-b][1,4]benzodiazepin-6-one], on M₁ receptors, the “selectivity for M₁ than for M₃ receptors” value is on record as 20 fold and the Ki worked out at 1.5 nM. Moreover, the “M1 nH (Hill Coefficient)” value at M₁ receptors (setting [3]) is given as 0.9. Moreover, the “effectiveness in myopia therapy” value in the series on Form-deprivation myopia is listed as “at least as effective as pirenzepine”. Also, the “grade of skin reaction” value in series [1] (in any test animal) came out at 0. Further, at M₃ receptors (setting [4]), the “M3 nH (Hill Coefficient)” value is listed as 0.80. In addition, at M₃ receptors (setting [5]), the Ki was determined as 29.7 nM. Also, at M₂ receptors, the “M2 nH (Hill Coefficient)” value is reported as 1.03 and the inhibitory constant (Ki) stood at 248 nM.

`CN1CCCC(C(=O)N2c3ccccc3C(=O)Nc3cccnc32)C1` (centres unmarked) [Rispenzepine, 11-(1-Methylpiperidin-3-carbonyl)-5,11-dihydro-6H -pyrido[2,3-b][1,4]benzodiazepin-6-one]: at M₁ receptors, the “selectivity for M₁ than for M₃ receptors” value is listed as 15 fold and the Ki worked out at 2.61 nM. Further, the “M1 nH (Hill Coefficient)” value on M₁ receptors (setting [3]) worked out at 0.9. The “effectiveness in myopia therapy” value with Form-deprivation myopia is reported as “at least as effective as pirenzepine”. Also, the “grade of skin reaction” value in series [1] (in any test animal) is 0. Moreover, the “M3 nH (Hill Coefficient)” value on M₃ receptors (setting [4]) is 0.84. Also, on M₃ receptors (setting [5]), the Ki is 38.9 nM. Further, on M₂ receptors, the “M2 nH (Hill Coefficient)” value was 1.00 and the Ki was found to be 226 nM.

On to `CN1CCN(CC(=O)N2c3ccccc3C(=O)Nc3cccnc32)CC1` [Pirenzepine, reference compound], for which the “grade of skin reaction” value is given as 1 in series [1] (in six of nine animals) and 2 in series [1] (in two of nine animals).

Take `CN1CCc2cccc3c2[C@H]1Cc1ccc(O)c(O)c1-3` [apOmorphine]: the “axial enlargement of the eye” value in series [2] was “inhibit or actually prevent”.

As for `CN1[C@@H]2CC[C@H]1C[C@@H](OC(=O)C(CO)c1ccccc1)C2` (some centres unmarked) [Atropine, reference compound], the “M1 nH (Hill Coefficient)” value at M₁ receptors was determined as 1.5. Moreover, at M₃ receptors, the Ki is 0.37 nM. In addition, the “M3 nH (Hill Coefficient)” value at M₃ receptors (setting [4]) was 1.1. Moreover, the “M2 nH (Hill Coefficient)” value at M₂ receptors was 1.05. The “progression of the myopia” value in the series on myopia is given as “halted”.
